Data published in the NIST ThermoML archive (doi:10.1021/je060283w).

Test: relative permittivity at zero frequency (dimensionless)
Settings: Parallel plate capacitor

COC [dimethyl ether]
Settings | relative permittivity at zero frequency
303.7 K, 180 kPa, Gas | 1.016
303.7 K, 320 kPa, Gas | 1.025
303.7 K, 440 kPa, Gas | 1.032
303.7 K, 460 kPa, Gas | 1.034
303.7 K, 500 kPa, Gas | 1.037
303.7 K, 530 kPa, Gas | 1.039
303.7 K, 660 kPa, Gas | 1.084
303.7 K, 6300 kPa, Liquid | 5.34
303.7 K, 8000 kPa, Liquid | 5.37
303.7 K, 10200 kPa, Liquid | 5.41
303.7 K, 12200 kPa, Liquid | 5.44
303.7 K, 14200 kPa, Liquid | 5.47
303.7 K, 16300 kPa, Liquid | 5.5
303.7 K, 17600 kPa, Liquid | 5.52
303.7 K, 20200 kPa, Liquid | 5.56
303.7 K, 22400 kPa, Liquid | 5.59
303.7 K, 24200 kPa, Liquid | 5.62
303.7 K, 25900 kPa, Liquid | 5.64
303.7 K, 27500 kPa, Liquid | 5.66
313.3 K, 80 kPa, Gas | 1.011
313.3 K, 150 kPa, Gas | 1.015
313.3 K, 460 kPa, Gas | 1.034
313.3 K, 510 kPa, Gas | 1.037
313.3 K, 560 kPa, Gas | 1.041
313.3 K, 770 kPa, Gas | 1.057
313.3 K, 870 kPa, Gas | 1.142
313.3 K, 2300 kPa, Liquid | 5
313.3 K, 4400 kPa, Liquid | 5.05
313.3 K, 6300 kPa, Liquid | 5.1
313.3 K, 8300 kPa, Liquid | 5.14
313.3 K, 10200 kPa, Liquid | 5.16
313.3 K, 12200 kPa, Liquid | 5.2
313.3 K, 14300 kPa, Liquid | 5.24
313.3 K, 16300 kPa, Liquid | 5.27
313.3 K, 18000 kPa, Liquid | 5.3
313.3 K, 20400 kPa, Liquid | 5.33
313.3 K, 22000 kPa, Liquid | 5.35
313.3 K, 24300 kPa, Liquid | 5.39
313.3 K, 26100 kPa, Liquid | 5.41
313.3 K, 28200 kPa, Liquid | 5.44
313.3 K, 29600 kPa, Liquid | 5.46
323 K, 50 kPa, Gas | 1.01
323 K, 100 kPa, Gas | 1.012
323 K, 240 kPa, Gas | 1.02
323 K, 450 kPa, Gas | 1.033
323 K, 530 kPa, Gas | 1.038
323 K, 700 kPa, Gas | 1.049
323 K, 1080 kPa, Gas | 1.118
323 K, 1300 kPa, Liquid | 4.72
323 K, 2200 kPa, Liquid | 4.74
323 K, 4200 kPa, Liquid | 4.8
323 K, 6200 kPa, Liquid | 4.85
323 K, 8200 kPa, Liquid | 4.89
323 K, 10400 kPa, Liquid | 4.93
323 K, 12400 kPa, Liquid | 4.97
323 K, 14200 kPa, Liquid | 5.01
323 K, 16400 kPa, Liquid | 5.04
323 K, 18300 kPa, Liquid | 5.07
323 K, 19800 kPa, Liquid | 5.1
323 K, 22000 kPa, Liquid | 5.13
323 K, 24000 kPa, Liquid | 5.17
323 K, 26300 kPa, Liquid | 5.2
323 K, 27900 kPa, Liquid | 5.23
323 K, 29400 kPa, Liquid | 5.25
323 K, 31200 kPa, Liquid | 5.27
333.4 K, 430 kPa, Gas | 1.03
333.4 K, 460 kPa, Gas | 1.031
333.4 K, 540 kPa, Gas | 1.036
333.4 K, 710 kPa, Gas | 1.047
333.4 K, 850 kPa, Gas | 1.057
333.4 K, 1050 kPa, Gas | 1.071
333.4 K, 1380 kPa, Gas | 1.122
333.4 K, 2200 kPa, Liquid | 4.46
333.4 K, 4300 kPa, Liquid | 4.52
333.4 K, 6400 kPa, Liquid | 4.58
333.4 K, 8300 kPa, Liquid | 4.62
333.4 K, 10200 kPa, Liquid | 4.67
333.4 K, 12200 kPa, Liquid | 4.71
333.4 K, 14000 kPa, Liquid | 4.74
333.4 K, 15800 kPa, Liquid | 4.78
333.4 K, 17200 kPa, Liquid | 4.81
333.4 K, 22000 kPa, Liquid | 4.89
333.4 K, 23800 kPa, Liquid | 4.92
333.4 K, 25800 kPa, Liquid | 4.95
333.4 K, 27600 kPa, Liquid | 4.97
333.4 K, 29400 kPa, Liquid | 4.99
343.2 K, 60 kPa, Gas | 1.01
343.2 K, 120 kPa, Gas | 1.013
343.2 K, 220 kPa, Gas | 1.018
343.2 K, 390 kPa, Gas | 1.027
343.2 K, 430 kPa, Gas | 1.029
343.2 K, 490 kPa, Gas | 1.032
343.2 K, 550 kPa, Gas | 1.035
343.2 K, 610 kPa, Gas | 1.039
343.2 K, 740 kPa, Gas | 1.044
343.2 K, 930 kPa, Gas | 1.059
343.2 K, 1090 kPa, Gas | 1.069
343.2 K, 1240 kPa, Gas | 1.08
343.2 K, 1550 kPa, Gas | 1.106
343.2 K, 1730 kPa, Gas | 1.166
343.2 K, 2600 kPa, Liquid | 4.21
343.2 K, 4000 kPa, Liquid | 4.25
343.2 K, 6000 kPa, Liquid | 4.32
343.2 K, 8200 kPa, Liquid | 4.38
343.2 K, 10200 kPa, Liquid | 4.43
343.2 K, 12200 kPa, Liquid | 4.48
343.2 K, 14400 kPa, Liquid | 4.52
343.2 K, 16300 kPa, Liquid | 4.56
343.2 K, 18000 kPa, Liquid | 4.59
343.2 K, 20200 kPa, Liquid | 4.64
343.2 K, 21900 kPa, Liquid | 4.67
343.2 K, 23400 kPa, Liquid | 4.69
343.2 K, 27700 kPa, Liquid | 4.76
343.2 K, 30400 kPa, Liquid | 4.8
